Assay results published in the NIST ThermoML archive (doi:10.1016/j.jct.2004.11.005).
± gives the expanded uncertainty stated by the source.

Test: activity coefficient (dimensionless); of the first substance listed, at infinite dilution; xn = mol fraction of the nth substance listed
Conditions: Liquid, x1 = 0

SMILES | activity coefficient (270.02 K) | activity coefficient (280 K) | activity coefficient (290 K) | activity coefficient (300 K) | activity coefficient (310 K) | activity coefficient (330 K) | activity coefficient (310.01 K) | activity coefficient (320 K) | activity coefficient (269.99 K) | other results
C=CC=C [1,3-butadiene] + CCC(O)CC | 3.03 ± 0.09 | 2.92 ± 0.09 | 2.75 ± 0.08 | 2.63 ± 0.08 |  |  |  |  |  | activity coefficient (259.98 K): 3.18 ± 0.1
C=CC=C [1,3-butadiene] + CCCC(C)O |  |  | 2.68 ± 0.08 |  | 2.47 ± 0.07 | 2.27 ± 0.07 |  |  |  | activity coefficient (249.94 K): 3.01 ± 0.09; activity coefficient (269.98 K): 2.89 ± 0.09
C=CC=C [1,3-butadiene] + CCCCCO |  |  | 2.5 ± 0.08 |  | 2.46 ± 0.07 | 2.33 ± 0.07 |  |  |  | activity coefficient (249.97 K): 2.5 ± 0.08; activity coefficient (270.01 K): 2.51 ± 0.08
C=CCC [1-butene] + CCC(O)CC | 3.16 ± 0.09 | 3.05 ± 0.09 | 2.96 ± 0.09 | 2.86 ± 0.09 |  | 2.49 ± 0.07 | 2.72 ± 0.08 | 2.61 ± 0.08 |  | activity coefficient (259.96 K): 3.27 ± 0.1
C=CCC [1-butene] + CCCC(C)O |  |  | 2.86 ± 0.09 |  | 2.69 ± 0.08 | 2.5 ± 0.08 |  |  | 3.03 ± 0.09 | activity coefficient (249.94 K): 3.04 ± 0.09
C=CCC [1-butene] + CCCCCO |  |  | 2.82 ± 0.08 |  | 2.78 ± 0.08 | 2.7 ± 0.08 |  |  | 2.87 ± 0.09 | activity coefficient (249.96 K): 2.88 ± 0.09
CC(C)C [2-methylpropane] + CCC(O)CC | 3.62 ± 0.11 | 3.53 ± 0.11 | 3.45 ± 0.1 | 3.35 ± 0.1 |  |  | 3.22 ± 0.1 | 3.09 ± 0.09 |  | activity coefficient (259.96 K): 3.66 ± 0.11; activity coefficient (330.01 K): 2.98 ± 0.09
CC(C)C [2-methylpropane] + CCCC(C)O |  |  | 3.49 ± 0.1 |  | 3.3 ± 0.1 | 3.1 ± 0.09 |  |  |  | activity coefficient (250.01 K): 3.66 ± 0.11; activity coefficient (269.96 K): 3.61 ± 0.11
CC(C)C [2-methylpropane] + CCCCCO |  |  | 3.56 ± 0.11 |  | 3.51 ± 0.11 | 3.4 ± 0.1 |  |  |  | activity coefficient (249.97 K): 3.65 ± 0.11; activity coefficient (270.01 K): 3.59 ± 0.11
C=C(C)C [2-methylpropene] + CCC(O)CC | 3.15 ± 0.09 | 3.04 ± 0.09 | 2.93 ± 0.09 | 2.82 ± 0.08 |  |  | 2.69 ± 0.08 | 2.56 ± 0.08 |  | activity coefficient (259.96 K): 3.25 ± 0.1; activity coefficient (330.01 K): 2.43 ± 0.07
C=C(C)C [2-methylpropene] + CCCC(C)O |  |  | 2.82 ± 0.08 |  | 2.63 ± 0.08 | 2.45 ± 0.07 |  |  |  | activity coefficient (249.94 K): 3.1 ± 0.09; activity coefficient (269.98 K): 2.99 ± 0.09
C=C(C)C [2-methylpropene] + CCCCCO |  |  | 2.82 ± 0.08 |  | 2.76 ± 0.08 | 2.63 ± 0.08 |  |  |  | activity coefficient (249.97 K): 2.86 ± 0.09; activity coefficient (270.01 K): 2.84 ± 0.09
C/C=C/C [(E)-2-butene] + CCC(O)CC | 3.06 ± 0.09 | 2.96 ± 0.09 | 2.88 ± 0.09 | 2.77 ± 0.08 |  |  | 2.67 ± 0.08 | 2.54 ± 0.08 |  | activity coefficient (259.96 K): 3.12 ± 0.09; activity coefficient (330.01 K): 2.5 ± 0.08
C/C=C/C [(E)-2-butene] + CCCC(C)O |  |  | 2.81 ± 0.08 |  | 2.65 ± 0.08 | 2.49 ± 0.07 |  |  | 2.91 ± 0.09 | activity coefficient (249.94 K): 2.9 ± 0.09
C/C=C/C [(E)-2-butene] + CCCCCO |  |  | 2.76 ± 0.08 |  | 2.76 ± 0.08 | 2.69 ± 0.08 |  |  | 2.8 ± 0.08 | activity coefficient (249.96 K): 2.8 ± 0.08
CCCC [butane] + CCC(O)CC | 3.4 ± 0.1 | 3.36 ± 0.1 | 3.26 ± 0.1 | 3.15 ± 0.09 |  |  | 3.04 ± 0.09 | 2.92 ± 0.09 |  | activity coefficient (259.98 K): 3.48 ± 0.1; activity coefficient (330.01 K): 2.79 ± 0.08
CCCC [butane] + CCCC(C)O |  |  | 3.24 ± 0.1 |  | 3.11 ± 0.09 | 2.94 ± 0.09 |  |  |  | activity coefficient (249.93 K): 3.4 ± 0.1; activity coefficient (269.96 K): 3.38 ± 0.1
CCCC [butane] + CCCCCO |  |  | 3.31 ± 0.1 |  | 3.27 ± 0.1 | 3.19 ± 0.1 |  |  |  | activity coefficient (249.97 K): 3.43 ± 0.1; activity coefficient (270.01 K): 3.33 ± 0.1
CCC [propane] + CCC(O)CC | 3.21 ± 0.1 | 3.14 ± 0.09 | 3.09 ± 0.09 | 3.01 ± 0.09 |  | 2.72 ± 0.08 | 2.9 ± 0.09 | 2.81 ± 0.08 |  | activity coefficient (259.96 K): 3.27 ± 0.1
CCC [propane] + CCCCCO |  |  | 3.08 ± 0.09 |  | 3.05 ± 0.09 | 3 ± 0.09 |  |  | 3.07 ± 0.09 | activity coefficient (249.96 K): 3.08 ± 0.09
C=CC [propene] + CCC(O)CC | 2.87 ± 0.09 | 2.82 ± 0.08 | 2.74 ± 0.08 | 2.63 ± 0.08 |  |  | 2.53 ± 0.08 | 2.42 ± 0.07 |  | activity coefficient (259.94 K): 2.97 ± 0.09; activity coefficient (330.01 K): 2.32 ± 0.07
C=CC [propene] + CCCC(C)O |  |  | 2.66 ± 0.08 |  | 2.53 ± 0.08 | 2.37 ± 0.07 |  |  | 2.77 ± 0.08 | activity coefficient (249.93 K): 2.79 ± 0.08
C=CC [propene] + CCCCCO |  |  | 2.6 ± 0.08 |  | 2.59 ± 0.08 | 2.51 ± 0.08 |  |  | 2.59 ± 0.08 | activity coefficient (249.96 K): 2.59 ± 0.08
